Like-named read-outs stand apart in the source and are kept apart here.
Assays:
CYP3A4/5 = experiment: CYP direct inhibition in human liver microsomes; settings: pooled human liver microsomes
recombinant human MAO-B = target: T1, recombinant human MAO-B (Homo sapiens, UniProt P27338); experiment: MAO inhibition, kynuramine oxidation to 4-hydroxyquinoline; type: biochemical; settings: substrate kynuramine (20 µM); mean of N = 2
T1 construct: purchased Corning
T1 sequence (P27338 1-520): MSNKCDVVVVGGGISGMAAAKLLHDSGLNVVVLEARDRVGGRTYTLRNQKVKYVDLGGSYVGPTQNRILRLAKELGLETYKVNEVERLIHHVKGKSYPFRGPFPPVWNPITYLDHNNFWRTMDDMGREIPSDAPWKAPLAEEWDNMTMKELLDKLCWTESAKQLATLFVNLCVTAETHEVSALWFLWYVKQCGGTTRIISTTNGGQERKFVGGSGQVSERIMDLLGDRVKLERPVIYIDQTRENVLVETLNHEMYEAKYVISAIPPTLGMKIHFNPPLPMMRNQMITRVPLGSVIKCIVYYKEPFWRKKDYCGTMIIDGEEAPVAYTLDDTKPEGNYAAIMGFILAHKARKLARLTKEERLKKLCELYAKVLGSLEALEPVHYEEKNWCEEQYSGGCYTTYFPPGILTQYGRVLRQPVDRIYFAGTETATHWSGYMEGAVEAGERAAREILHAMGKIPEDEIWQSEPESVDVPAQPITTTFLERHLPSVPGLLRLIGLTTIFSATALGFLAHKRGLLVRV
Experimental: (§1) A total of 99 µL of substrate working solution was added into 1.1 mL incubation tubes and then 1 µL of the test compound/control working solution or DMSO (vehicle control) was added, mixed well, and pre-incubated at 37 °C for 5 min. MAO-A (0.005 mg/mL) and MAO-B (0.02 mg/mL) were pre-incubated in the working solution at 37 °C for 5 min. A total of 100 µL of pre-incubated MAO-A or MAO-B working solution was added to incubation tubes to start the reaction, mixed well, and incubated at 37 °C for 15 min. […] All samples were centrifuged at 4000 rpm at 4 °C for 15 min, then 100 µL supernatant with 100 µL of water was transferred for LC-MS/MS analysis.
(§2) Enzyme activity (%) = PAR with compound/PAR vehicle × 100.
(§3) The oxidation of kynuramine to 4-hydroxyquinoline generated was the in vitro marker reaction of MAO-A and MAO-B enzymes.

recombinant human MAO-A = target: T2, recombinant human MAO-A (Homo sapiens, UniProt P21397); experiment: as above; type: biochemical; settings: substrate kynuramine (20 µM); mean of N = 2; read-out: IC50 MAO-A
T2 sequence (P21397 1-527): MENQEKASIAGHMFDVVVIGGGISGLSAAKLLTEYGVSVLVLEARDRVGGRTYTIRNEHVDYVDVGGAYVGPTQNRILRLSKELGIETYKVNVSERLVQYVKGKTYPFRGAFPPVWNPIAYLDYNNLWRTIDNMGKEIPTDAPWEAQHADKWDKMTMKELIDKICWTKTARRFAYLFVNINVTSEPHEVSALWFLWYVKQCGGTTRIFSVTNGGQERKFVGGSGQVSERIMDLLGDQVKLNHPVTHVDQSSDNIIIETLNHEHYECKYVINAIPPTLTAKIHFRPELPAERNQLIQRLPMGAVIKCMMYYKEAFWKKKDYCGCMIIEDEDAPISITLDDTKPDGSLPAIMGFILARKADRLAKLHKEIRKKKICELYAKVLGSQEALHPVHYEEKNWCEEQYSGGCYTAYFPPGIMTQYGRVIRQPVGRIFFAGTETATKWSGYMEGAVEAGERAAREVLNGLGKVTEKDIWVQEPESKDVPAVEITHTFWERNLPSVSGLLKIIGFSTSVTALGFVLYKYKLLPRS
Experimental: as §1, §2, §3

OATP1B3 = target: T3, OATP1B3 (Homo sapiens, UniProt Q9NPD5); experiment: in vitro; settings: human
T3 sequence (Q9NPD5 1-702): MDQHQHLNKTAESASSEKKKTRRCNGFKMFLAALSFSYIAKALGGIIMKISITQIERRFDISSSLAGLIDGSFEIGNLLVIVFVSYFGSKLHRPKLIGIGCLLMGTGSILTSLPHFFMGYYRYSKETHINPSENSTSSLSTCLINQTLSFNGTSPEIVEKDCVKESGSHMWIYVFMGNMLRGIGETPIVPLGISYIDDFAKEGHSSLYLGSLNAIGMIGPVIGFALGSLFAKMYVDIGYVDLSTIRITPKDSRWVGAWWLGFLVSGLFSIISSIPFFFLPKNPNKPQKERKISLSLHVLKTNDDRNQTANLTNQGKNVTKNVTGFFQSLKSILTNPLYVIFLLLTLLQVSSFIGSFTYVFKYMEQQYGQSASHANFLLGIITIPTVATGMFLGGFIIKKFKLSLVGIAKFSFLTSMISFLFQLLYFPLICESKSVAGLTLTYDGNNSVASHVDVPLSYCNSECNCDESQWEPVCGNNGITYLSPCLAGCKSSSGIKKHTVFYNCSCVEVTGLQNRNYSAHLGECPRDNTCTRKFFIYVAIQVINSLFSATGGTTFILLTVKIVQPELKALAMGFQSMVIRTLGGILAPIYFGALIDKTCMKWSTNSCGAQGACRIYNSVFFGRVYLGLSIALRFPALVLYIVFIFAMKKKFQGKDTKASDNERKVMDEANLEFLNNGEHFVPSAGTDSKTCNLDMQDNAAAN
Experimental: HEK293-OATP1B1 and OATP1B3 cells were diluted to 1 × 10^6 cells/mL with DMEM supplemented with 1% non-essential amino acid (NEAA), 10% fetal bovine serum (FBS), 1% PS solution (100 U/mL penicillin-G and 100 μg/mL streptomycin), and seeded on a 96-well BioCoat™ poly-d-lysine plate at a density of 1 × 10^6 cells/mL. […] Once the cells were anchored on the plate, the cell culture was replaced with DMEM containing 10% FBS and 1% PS solution (100 U/mL penicillin-G and 100 μg/mL streptomycin solution) and cultured one day for the uptake and inhibition studies. The cell culture medium was removed from the 96-well plate, then rinsed twice with 0.1 mL/well of pre-warmed transport buffer. The transporter cells containing pre-incubation solution were pre-incubated at 37 °C for 30 min. Then the pre-incubation solution was removed and replaced with 0.1 mL/well of dosing solution containing a substrate, respectively (blank transporter buffer containing a substrate, transport buffer containing a substrate and PC, and transport buffer containing a substrate and salidroside). Then, the transporter cells were incubated at 37 °C for 2 min. After incubation, all solutions in the cells were discarded and rinsed with 0.10 mL/well of ice-cold transport buffer (4 °C) three times. […] All samples were shaken and centrifuged at 4000 rpm at 4 °C for 15 min and the supernatant was removed for future analysis by LC-MS/MS.
as §2

CYP1A2 [1] = experiment: in vitro; settings: CYP1A2 mRNA, 50 μM, 48 h; for fold induction at 48 h, 50 µM: human, cryopreserved human hepatocytes (sandwich culture), Mean Fold Induction
Experimental: (§4) The incubation solution was aspirated and replaced with incubation solution containing the same concentrations of salidroside, vehicle, or positive inducers for an additional 24 h. The total treatment period was 48 h. After the treatment period of 48 h, the incubation solution was aspirated. Hepatocytes were washed twice with pre-warmed HBSS containing 10 mM HEPES (HBSS I) and then the remaining solution was aspirated. Hepatocytes were washed once with pre-warmed HBSS I and incubated with 140 μL of RLT (lysis buffer from RNeasy 96 Kit) supplemented with 1% β-mercaptoethanol. Plates were then stored at −70 °C in a freezer until RNA analysis. Before RNA extraction, the frozen plate was thawed, and cell lysates were transferred to 96-well plates. RNA isolation was performed using a QIAcube RNA extraction system. Reverse transcription was performed to obtain cDNA. Quantification of the selective genes by real-time quantitative polymerase chain reaction (qPCR) was performed with TaqMan universal PCR Master Mix on the Bio-rad CFX384 TouchTM Real-Time PCR System. The relative change in the mRNA level of the selected target genes induced by each test compound was expressed in relation to the vehicle control sample, and fold changes in gene expression were determined by the ΔΔCt method.

CYP1A2 [2] = experiment: in vitro
Experimental: as §4, with “The sandwich medium was removed, and the hepatocytes were treated with incubation solutions containing salidroside (1, 5, 10, and 30 µM), vehicle (0.1% DMSO), or positive inducers in triplicate for 24 h after the cultures were established. The incubation” for “The incubation”
as §2

MAO-B = tested on: MAO-B; parameters: method as in PMID 19168123; settings: isolated compound at 10 µM; cited from earlier work
CYP2B6 [3] = experiment: CYP induction by enzyme activity in cryopreserved human hepatocytes (Lot# SNP)
Experimental: as §4, with “The sandwich medium was removed, and the hepatocytes were treated with incubation solutions containing salidroside (1, 5, 10, and 30 µM), vehicle (0.1% DMSO), or positive inducers in triplicate for 24 h after the cultures were established. The incubation” for “The incubation”
as §2

CYP2B6 [4] = experiment: in vitro; settings: CYP2B6 mRNA, 1000 µM, 48 h; for fold induction at 48 h, 1000 µM: human, Mean Fold Induction
Experimental: as §4, with “The sandwich medium was removed, and the hepatocytes were treated with incubation solutions containing salidroside (1, 5, 10, and 30 µM), vehicle (0.1% DMSO), or positive inducers in triplicate for 24 h after the cultures were established. The incubation” for “The incubation”

CC(=O)N1CCN(c2ccc(OCC3COC(Cn4ccnc4)(c4ccc(Cl)cc4Cl)O3)cc2)CC1 (stereo not shown) [Ketoconazole, ketoconazole]
IC50 at 10 min (CYP3A4/5; probe midazolam): 27 nM
IC50 at 10 min (CYP3A4/5; probe testosterone): 18.3 nM

Cc1oncc1C(=O)Nc1ccc(C(F)(F)F)cc1 [leflunomide, reference compound]
IC50 (recombinant human MAO-B): 7400 nM
IC50 (recombinant human MAO-A): 13800 nM

CO[C@H]1/C=C/O[C@@]2(C)Oc3c(C)c(O)c4c(O)c(c(/C=N/N5CCN(C)CC5)c(O)c4c3C2=O)NC(=O)/C(C)=C\C=C\[C@H](C)[C@H](O)[C@@H](C)[C@@H](O)[C@@H](C)[C@H](OC(C)=O)[C@@H]1C [RIF, rifampicin, reference compound]
IC50 at 2 min (OATP1B3): 1540 nM

COc1ccc2[nH]c([S+]([O-])Cc3ncc(C)c(OC)c3C)nc2c1 (stereo not shown) [OME, omeprazole, reference compound]
% Positive Control (CYP1A2 [1]; Lot# 1911442): 100%
% Positive Control (CYP1A2 [1]; Lot# MWB): 100%
% Positive Control (CYP1A2 [1]; Lot# RFM): 100%
fold induction at 48 h, 50 µM (CYP1A2 [1]; Lot# 1911442): 10
fold induction at 48 h, 50 µM (CYP1A2 [1]; Lot# MWB): 24
fold induction at 48 h, 50 µM (CYP1A2 [1]; Lot# RFM): 19
fold induction at 48 h, 50 µM (CYP1A2 [2]): 3.55
% of Positive Control (CYP1A2 [2]; CYP1A2 activity, Lot# SNP, 50 µM): 100%

CC(C)=CC[C@H](O)/C(C)=C/CO[C@@H]1O[C@H](CO)[C@@H](O)[C@H](O)[C@H]1O [rosirdin, reference compound]
inhibition of MAO-B (MAO-B): 83.8%

CCC1(c2ccccc2)C(=O)NC(=O)NC1=O [PB, phenobarbital, reference compound]
% of Positive Control (CYP2B6 [3]; CYP2B6 activity, Lot# SNP, 1000 µM): 100%
fold induction at 48 h, 1000 µM (CYP2B6 [3]; human): 5.69
% Positive Control (CYP2B6 [4]; Lot# 1911442): 100%
% Positive Control (CYP2B6 [4]; Lot# MWB): 100%
% Positive Control (CYP2B6 [4]; Lot# RFM): 100%
fold induction at 48 h, 1000 µM (CYP2B6 [4]; Lot# 1911442): 13.6
fold induction at 48 h, 1000 µM (CYP2B6 [4]; Lot# MWB): 14.7
fold induction at 48 h, 1000 µM (CYP2B6 [4]; Lot# RFM): 8.81
